Values joined by “and” are separate entries in the source; they are usually repeats but may differ in a detail not shown here. Identical values can stand only once.
What was measured:
Assay type in all cases: in vivo
[1] = test system: linear subcutaneous-deep incision wounds in hairless mice (Skh:HR-1); test: Example 2 scar evaluation by Vancouver Scale at day 21 and gross evaluation; design: key: Vancouver Scale subscores (18-point total), mean of two observers
Method: (§1) Twelve hairless mice (Skh:HR-1) with an average weight of […] were treated topically with a local anesthetic (LMX-4, Ferndale Laboratories, Inc.) for 30 minutes prior to wounding for dermal anesthesia. Antiseptics were not used because of the possibility of their local effect on the wound healing process.
(§2) The mice were subdivided into two groups, A and B. Each mouse received three linear, 10 mm long, subcutaneous-deep incision wounds parallel to the spinal column. The first incision was near the spinal column on the left side (C), one at a position 10 mm away from the first on the same side (L), and one on the right side about 10 mm from the center line or spinal column (R). All incision wounds were made with a 0.3 mm blade surgical blade. Because of the loose nature of the hairless mouse epidermis the wounds spread to as wide as 3 mm. Each mouse was housed separately.
(§3) 1) 0.25% Formulations: water (79.75%), ethanol (18%), methylprednisolone acetate or prednisolone acetate (0.25%), and ammonium acryloyldimethyltaurate/VP copolymer (2%).
(§4) 2) 1% Formulations: water (79%), ethanol (18%), methylpredinisolone acetate or prednisolone acetate (1%), and ammonium acryloyldimethyltaurate/VP copolymer (2%).
(§5) In Group A, wounds C and L were treated with the 0.25% and 1% methylprednisolone acetate formulations, respectively, and wound R was the control or untreated wound. In Group B, wounds C and L were treated with the 0.25% and 1% prednisolone acetate formulations, respectively and wound R was the control. The study drug (methylprednisolone or prednisolone) was applied to the treatment wounds twice daily (8 hours apart) beginning 1 h after the incision on day 1 and continuing through day 21. The wounds were far enough apart to avoid the spread of the treatment gel from the treated wound to the control wound. No additional physical barrier, such as a gauze bandage, was used.
(§6) Each mouse was kept in its cage during days 14-21. On day 21, each scar was assessed according to the Vancouver Scale (18 points) under magnification by two observers independently and the scores were averaged and recorded. Progressive re-epithelializaton of the wound surface from the wound edges continued until the wound surface was completely closed at a time between days 14 and 21.

[2] = test system: linear subcutaneous-deep wounds in hairless mice (Skh:HR-1); test: Example 1 wound healing in hairless mice: healing evaluation by wound width; settings: for Scar Width at widest margin: individual subject, 1% formulation topically twice daily; for Scar Width at widest margin / Scar Width at widest margin, Mean: L wound; for Scar Width at widest margin, Mean: mean of 12 subjects, 1% formulation twice daily
Method: as §1, with “for dermal anesthesia for” for “for”, “wounding.” for “wounding for dermal anesthesia.”
(§7) Two linear subcutaneous-deep wounds were made bilaterally with a 0.3 mm blade surgical knife on the dorsal side of each subject approximately 10 mm on each side of the spinal column. Because of the loose nature of the hairless mouse epidermis the wounds spread to as wide as 3 mm. Each mouse was housed separately.
(§8) The test formulation comprised the following ingredients (by weight percent): water (79%), ethanol (18%), prednisolone acetate (1%), and ammonium acryloyldimethyltaurate/VP copolymer (2%).
(§9) In each test subject, the right wound was assigned to a control (i.e., no treatment) and the left would was treated with a the 1% prednisolone acetate test formulation, applied twice daily (8 hours apart) beginning 1 h after the incision on day 1 and continuing through day 21. The wounds were about 20 mm apart to prevent the treatment gel from migrating from the treatment wound to the control wound.
Healing evaluation was made by measuring wound closure, which was assessed by the width of the wound. Evaluation was made on days 1, 3, 5, 10, and 14. The width of each scar was measured with digital calipers at the widest point while subject was lying motionless on its ventral side. Digital photographs were taken to record healing process.

[3] = test system: linear subcutaneous-deep wounds in hairless mice (Skh:HR-1); test: Example 1 scar evaluation by Vancouver Scale at day 21; settings: 1% formulation
Method: as §1, with “for dermal anesthesia for” for “for”, “wounding.” for “wounding for dermal anesthesia.”
as §7, §8, §9
as §6, with “re-epithelialization” for “re-epithelializaton”

[4] = test system: linear subcutaneous-deep incision wounds in hairless mice (Skh:HR-1); test: Example 2 wound healing in hairless mice: healing evaluation by wound width
Method: as §1, §2, §3, §4, §5
Healing evaluation was made by measuring wound closure, which was assessed by the width of the wound. The width of each scar was measured with digital calipers at the widest point while subject was lying motionless, on its ventral side. Digital photographs were taken to record the healing process. The mean width of wound was recorded on days 1, 3, 5, 7, 9, 11, 13, 15, 17, 19 and 21.

[5] = Day 21, individual subject, L wound
[6] = Day 21, mean of 12 subjects, L wound
[7] = Day 1, wound C, 0.25% formulation twice daily
[8] = Day 1, wound L, 1% formulation twice daily
[9] = Day 3, wound C, 0.25% formulation twice daily
[10] = Day 3, wound L, 1% formulation twice daily
[11] = Day 5, wound C, 0.25% formulation twice daily
[12] = Day 5, wound L, 1% formulation twice daily
[13] = Day 7, wound C, 0.25% formulation twice daily
[14] = Day 7, wound L, 1% formulation twice daily
[15] = Day 9, wound C, 0.25% formulation twice daily
[16] = Day 9, wound L, 1% formulation twice daily
[17] = Day 11, wound C, 0.25% formulation twice daily
[18] = Day 11, wound L, 1% formulation twice daily
[19] = Day 13, wound C, 0.25% formulation twice daily
[20] = Day 13, wound L, 1% formulation twice daily
[21] = Day 15, wound C, 0.25% formulation twice daily
[22] = Day 15, wound L, 1% formulation twice daily
[23] = Day 17, wound C, 0.25% formulation twice daily
[24] = Day 17, wound L, 1% formulation twice daily
[25] = Day 19, wound C, 0.25% formulation twice daily
[26] = Day 19, wound L, 1% formulation twice daily
[27] = Day 21, wound C, 0.25% formulation twice daily
[28] = Day 21, wound L, 1% formulation twice daily

CC(=O)OCC(=O)[C@@]1(O)CC[C@H]2[C@@H]3CCC4=CC(=O)C=C[C@]4(C)[C@H]3[C@@H](O)C[C@@]21C [prednisolone acetate]
Mean Vancouver Scale Scar Scoring, Height ([1]; wound C, 0.25% formulation): 0
Mean Vancouver Scale Scar Scoring, Pigmentation ([1]; wound C, 0.25% formulation): 1
Mean Vancouver Scale Scar Scoring, Pliability ([1]; wound C, 0.25% formulation): 2.5
Mean Vancouver Scale Scar Scoring, Vascularity ([1]; wound C, 0.25% formulation): 0
Mean Vancouver Scale Scar Scoring, Height ([1]; wound L, 1% formulation): 0
Mean Vancouver Scale Scar Scoring, Pigmentation ([1]; wound L, 1% formulation): 1
Mean Vancouver Scale Scar Scoring, Pliability ([1]; wound L, 1% formulation): 1.0
Mean Vancouver Scale Scar Scoring, Vascularity ([1]; wound L, 1% formulation): 0
redness and marginal line of treated wounds vs control ([2]; 1% formulation): less redness and a finer marginal line
scars healed with some degree of contracture ([2]; 1% formulation, number of scars out of 12): 8 out of the 12
signs of infection ([2]; 1% formulation, treated and control wounds): Neither the control nor the treated wounds showed signs of infection
Scar Width at widest margin ([2]; Day 1): 3.0 mm (2×) and 2.6 mm and 2.9 mm (4×) and 2.7 mm (3×) and 2.8 mm (2×)
Scar Width at widest margin, Mean ([2]; Day 1): 2.8 mm
Scar Width at widest margin ([2]; Day 3): 1.9 mm (3×) and 1.8 mm (4×) and 1.4 mm and 1.5 mm and 1.7 mm (3×)
Scar Width at widest margin, Mean ([2]; Day 3): 1.8 mm
Scar Width at widest margin ([2]; Day 5): 1.7 mm (3×) and 1.6 mm (3×) and 1.1 mm and 1.3 mm and 1.4 mm (3×) and 1.5 mm
Scar Width at widest margin, Mean ([2]; Day 5): 1.5 mm
Scar Width at widest margin ([2]; Day 10): 0.6 mm (4×) and 0.2 mm and 0.4 mm (2×) and 0.5 mm (3×) and 0.3 mm and 0.7 mm
Scar Width at widest margin, Mean ([2]; Day 10): 0.5 mm
Scar Width at widest margin ([2]; Day 14): 0.2 mm (2×) and 0.0 mm (10×)
Scar Width at widest margin, Mean ([2]; Day 14): 0 mm and 0.0 mm
mean difference in wound width, treated vs control ([2]; day 3, 1% formulation): 0.4 mm
mean difference in wound width, treated vs control ([2]; day 5, 1% formulation): 0.4 mm
mean difference in wound width, treated vs control ([2]; day 7, 1% formulation): 0.5 mm
mean difference in wound width, treated vs control ([2]; day 10, 1% formulation): 0.5 mm
mean difference in wound width, treated vs control ([2]; day 14, 1% formulation): 0.7 mm
retarding of healing phases ([2]; evaluation and healing period, 1% formulation): No apparent retarding of any phase of healing
contracture of healed epidermal layer vs control ([2]; evident by day 5, 1% formulation): less contracture
gross appearance of treated wounds (crusting, infiltrates, exudates) ([2]; first 14 days, 1% formulation): clear of crusting, infiltrates, and exudates
healing vs control group by wound width ([2]; over a 14-day period, 1% formulation): faster than the control group
Averaged Vancouver Scale Scar Scoring, Height [3, 5]: 0
Averaged Vancouver Scale Scar Scoring, Pigmentation [3, 5]: 1.5 and 1 (11×)
Averaged Vancouver Scale Scar Scoring, Pliability [3, 5]: 1 (10×) and 1.5 (2×)
Averaged Vancouver Scale Scar Scoring, Vascularity [3, 5]: 1 (2×) and 0 (10×)
Averaged Vancouver Scale Scar Scoring, Height, Mean [3, 6]: 0
Averaged Vancouver Scale Scar Scoring, Pigmentation, Mean [3, 6]: 1.1
Averaged Vancouver Scale Scar Scoring, Pliability, Mean [3, 6]: 1.1
Averaged Vancouver Scale Scar Scoring, Vascularity, Mean [3, 6]: 0.16
global assessment of scars by Vancouver Scale, treated vs control ([3]; day 21): significant difference in pliability, pigmentation and vascularity
pigmentation vs control ([3]; day 21): marginally better
vascularity in treated areas ([3]; day 21): returned to virtually normal
Mean Wound Width at Widest Margin [4, 7]: 3.1 ± 0.3 mm
Mean Wound Width at Widest Margin [4, 8]: 3.0 ± 0.2 mm
Mean Wound Width at Widest Margin [4, 9]: 2.5 ± 0.2 mm
Mean Wound Width at Widest Margin [4, 10]: 2.4 ± 0.3 mm
Mean Wound Width at Widest Margin [4, 11]: 1.7 ± 0.2 mm
Mean Wound Width at Widest Margin [4, 12]: 1.8 ± 0.4 mm
Mean Wound Width at Widest Margin [4, 13]: 1.4 ± 0.2 mm
Mean Wound Width at Widest Margin [4, 14]: 1.5 ± 0.2 mm
Mean Wound Width at Widest Margin [4, 15]: 1.1 ± 0.2 mm
Mean Wound Width at Widest Margin [4, 16]: 1.0 ± 0.2 mm
Mean Wound Width at Widest Margin [4, 17]: 0.6 ± 0.2 mm
Mean Wound Width at Widest Margin [4, 18]: 0.6 ± 0.2 mm
Mean Wound Width at Widest Margin [4, 19]: 0.1 ± 0.2 mm
Mean Wound Width at Widest Margin [4, 20]: 0.2 ± 0.3 mm
Mean Wound Width at Widest Margin [4, 21]: 0 mm
Mean Wound Width at Widest Margin [4, 22]: 0 mm
Mean Wound Width at Widest Margin [4, 23]: 0 mm
Mean Wound Width at Widest Margin [4, 24]: 0 mm
Mean Wound Width at Widest Margin [4, 25]: 0 mm
Mean Wound Width at Widest Margin [4, 26]: 0 mm
Mean Wound Width at Widest Margin [4, 27]: 0 mm
Mean Wound Width at Widest Margin [4, 28]: 0 mm

CC(=O)OCC(=O)[C@@]1(O)CC[C@H]2[C@@H]3C[C@H](C)C4=CC(=O)C=C[C@]4(C)[C@H]3[C@@H](O)C[C@@]21C [methylprednisolone acetate]
Mean Vancouver Scale Scar Scoring, Height ([1]; wound C, 0.25% formulation): 0
Mean Vancouver Scale Scar Scoring, Pigmentation ([1]; wound C, 0.25% formulation): 1
Mean Vancouver Scale Scar Scoring, Pliability ([1]; wound C, 0.25% formulation): 2.0
Mean Vancouver Scale Scar Scoring, Vascularity ([1]; wound C, 0.25% formulation): 0
Mean Vancouver Scale Scar Scoring, Height ([1]; wound L, 1% formulation): 0
Mean Vancouver Scale Scar Scoring, Pigmentation ([1]; wound L, 1% formulation): 1
Mean Vancouver Scale Scar Scoring, Pliability ([1]; wound L, 1% formulation): 1.5
Mean Vancouver Scale Scar Scoring, Vascularity ([1]; wound L, 1% formulation): 0
Mean Wound Width at Widest Margin [4, 7]: 3.1 ± 0.3 mm
Mean Wound Width at Widest Margin [4, 8]: 3.0 ± 0.2 mm
Mean Wound Width at Widest Margin [4, 9]: 2.5 ± 0.2 mm
Mean Wound Width at Widest Margin [4, 10]: 2.4 ± 0.3 mm
Mean Wound Width at Widest Margin [4, 11]: 2.0 ± 0.3 mm
Mean Wound Width at Widest Margin [4, 12]: 1.9 ± 0.4 mm
Mean Wound Width at Widest Margin [4, 13]: 1.5 ± 0.2 mm
Mean Wound Width at Widest Margin [4, 14]: 1.4 ± 0.2 mm
Mean Wound Width at Widest Margin [4, 15]: 1.0 ± 0.3 mm
Mean Wound Width at Widest Margin [4, 16]: 0.9 ± 0.3 mm
Mean Wound Width at Widest Margin [4, 17]: 0.5 ± 0.2 mm
Mean Wound Width at Widest Margin [4, 18]: 0.5 ± 0.1 mm
Mean Wound Width at Widest Margin [4, 19]: 0.1 ± 0.3 mm
Mean Wound Width at Widest Margin [4, 20]: 0.1 ± 0.2 mm
Mean Wound Width at Widest Margin [4, 21]: 0 mm
Mean Wound Width at Widest Margin [4, 22]: 0 mm
Mean Wound Width at Widest Margin [4, 23]: 0 mm
Mean Wound Width at Widest Margin [4, 24]: 0 mm
Mean Wound Width at Widest Margin [4, 25]: 0 mm
Mean Wound Width at Widest Margin [4, 26]: 0 mm
Mean Wound Width at Widest Margin [4, 27]: 0 mm
Mean Wound Width at Widest Margin [4, 28]: 0 mm

— patent US20110009374A1, “METHOD OF WOUND HEALING AND SCAR MODULATION” (priority 2009, published 2011)
